Results on three molecules are retold here after ChEMBL document CHEMBL1152560, “Substituted 2-arylbenzothiazoles as kinase inhibitors: hit-to-lead optimization” (Bioorg Med Chem, 2009).

The structures appear in SMILES notation.

The target of assay [1] is Tyrosine-protein kinase Fgr (Homo sapiens) (UniProt P09769). The experiment in a line: Residual activity of FGR at 1 uM by microplate scintillation counting.
The target in assay [2] is NT-3 growth factor receptor (Homo sapiens) (UniProt Q16288). The experiment in a line: Residual activity of TRK-C at 1 uM by microplate scintillation counting.
The target in assay [3] is T1, Activin receptor type-1B (Homo sapiens) (UniProt P36896).
T1 sequence (whole entry): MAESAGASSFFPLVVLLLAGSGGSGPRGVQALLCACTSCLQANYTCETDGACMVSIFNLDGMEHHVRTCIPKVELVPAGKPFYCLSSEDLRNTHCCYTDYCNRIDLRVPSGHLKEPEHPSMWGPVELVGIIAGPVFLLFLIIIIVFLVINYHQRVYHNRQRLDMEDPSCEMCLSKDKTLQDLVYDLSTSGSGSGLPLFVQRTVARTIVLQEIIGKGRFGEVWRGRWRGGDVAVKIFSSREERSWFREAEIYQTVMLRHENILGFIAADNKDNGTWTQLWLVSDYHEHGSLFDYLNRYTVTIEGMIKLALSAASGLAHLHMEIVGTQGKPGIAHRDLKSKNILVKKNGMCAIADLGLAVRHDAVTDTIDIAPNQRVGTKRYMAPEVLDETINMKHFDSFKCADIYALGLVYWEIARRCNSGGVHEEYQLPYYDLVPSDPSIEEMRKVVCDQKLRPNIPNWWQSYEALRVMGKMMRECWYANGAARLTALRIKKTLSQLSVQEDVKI
The experiment in a line: Residual activity of ACVR1B at 1 uM by microplate scintillation counting.

The target in the next assay is Aurora kinase B (Homo sapiens, UniProt Q96GD4). The experiment in a line: Residual activity of Aurora-B at 1 uM by microplate scintillation counting.
Assay [4] addresses Serine/threonine-protein kinase B-raf (Homo sapiens) (UniProt P15056). The experiment in a line: Residual activity of Wild type B-RAF at 10 uM by microplate scintillation counting.
Assay [5] deals with T2, Serine/threonine-protein kinase Nek11 (Homo sapiens) (UniProt Q8NG66).
T2 sequence (whole entry): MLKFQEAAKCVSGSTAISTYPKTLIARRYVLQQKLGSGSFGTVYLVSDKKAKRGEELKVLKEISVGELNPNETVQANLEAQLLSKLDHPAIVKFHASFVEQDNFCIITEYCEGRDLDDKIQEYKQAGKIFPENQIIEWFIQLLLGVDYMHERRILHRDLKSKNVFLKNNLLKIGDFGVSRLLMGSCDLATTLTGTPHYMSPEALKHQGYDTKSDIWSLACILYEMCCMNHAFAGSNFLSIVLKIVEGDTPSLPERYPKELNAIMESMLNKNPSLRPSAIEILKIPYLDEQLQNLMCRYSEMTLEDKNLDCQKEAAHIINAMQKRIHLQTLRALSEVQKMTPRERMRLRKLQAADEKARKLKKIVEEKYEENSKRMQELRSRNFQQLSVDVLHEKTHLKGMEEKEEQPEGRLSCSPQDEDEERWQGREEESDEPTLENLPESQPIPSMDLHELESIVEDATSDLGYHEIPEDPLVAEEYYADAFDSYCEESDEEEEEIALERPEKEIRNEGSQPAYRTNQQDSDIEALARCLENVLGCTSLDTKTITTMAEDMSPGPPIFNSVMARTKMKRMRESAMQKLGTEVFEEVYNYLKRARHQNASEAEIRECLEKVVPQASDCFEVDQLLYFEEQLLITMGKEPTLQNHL
The experiment in a line: Residual activity of NEK11 at 10 uM by microplate scintillation counting.

In assay [6] the target is Serine/threonine-protein kinase PAK 6 (Homo sapiens) (UniProt Q9NQU5). The experiment in a line: Residual activity of PAK6 at 10 uM by microplate scintillation counting.
Assay [7] has as its target RAC-alpha serine/threonine-protein kinase (Homo sapiens) (UniProt P31749). The experiment in a line: Residual activity of AKT1 at 0.1 uM by microplate scintillation counting.
Assay [8] addresses T3, cAMP-dependent protein kinase catalytic subunit PRKX (Homo sapiens) (UniProt P51817).
T3 sequence (whole entry): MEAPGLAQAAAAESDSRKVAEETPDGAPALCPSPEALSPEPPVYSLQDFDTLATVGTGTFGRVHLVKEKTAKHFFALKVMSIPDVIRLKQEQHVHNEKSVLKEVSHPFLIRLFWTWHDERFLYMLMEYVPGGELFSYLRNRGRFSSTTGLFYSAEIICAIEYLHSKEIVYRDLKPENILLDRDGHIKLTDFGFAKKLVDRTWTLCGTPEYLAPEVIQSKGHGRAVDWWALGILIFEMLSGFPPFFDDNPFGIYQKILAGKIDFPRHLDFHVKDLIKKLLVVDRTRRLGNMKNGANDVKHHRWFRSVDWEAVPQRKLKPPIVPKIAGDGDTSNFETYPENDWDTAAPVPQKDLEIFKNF
The experiment in a line: Residual activity of PRKX at 0.1 uM by microplate scintillation counting.

Assay [9] addresses Serine/threonine-protein kinase 33 (Homo sapiens) (UniProt Q9BYT3). The experiment in a line: Residual activity of STK33 at 0.1 uM by microplate scintillation counting.

The term residual activity denotes the signal under treatment as a percentage of the control signal.

Chain of Tyrosine-protein kinase Fgr (Homo sapiens) (P09769 2-529 limits assumed): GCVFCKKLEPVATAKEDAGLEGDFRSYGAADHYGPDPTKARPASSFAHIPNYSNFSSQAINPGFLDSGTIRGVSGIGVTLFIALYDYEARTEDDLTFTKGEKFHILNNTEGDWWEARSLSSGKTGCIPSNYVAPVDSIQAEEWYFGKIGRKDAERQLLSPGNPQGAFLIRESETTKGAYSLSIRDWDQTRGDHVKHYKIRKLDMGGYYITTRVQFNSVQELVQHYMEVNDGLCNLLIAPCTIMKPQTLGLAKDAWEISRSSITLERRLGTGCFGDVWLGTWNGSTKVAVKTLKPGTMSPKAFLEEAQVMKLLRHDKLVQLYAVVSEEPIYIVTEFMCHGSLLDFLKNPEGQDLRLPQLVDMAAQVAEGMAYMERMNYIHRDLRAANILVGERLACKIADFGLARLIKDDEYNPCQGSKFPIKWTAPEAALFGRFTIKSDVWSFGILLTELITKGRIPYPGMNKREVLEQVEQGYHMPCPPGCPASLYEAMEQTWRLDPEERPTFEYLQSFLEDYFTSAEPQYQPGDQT
Chain of RAC-alpha serine/threonine-protein kinase (Homo sapiens) (P31749 whole entry): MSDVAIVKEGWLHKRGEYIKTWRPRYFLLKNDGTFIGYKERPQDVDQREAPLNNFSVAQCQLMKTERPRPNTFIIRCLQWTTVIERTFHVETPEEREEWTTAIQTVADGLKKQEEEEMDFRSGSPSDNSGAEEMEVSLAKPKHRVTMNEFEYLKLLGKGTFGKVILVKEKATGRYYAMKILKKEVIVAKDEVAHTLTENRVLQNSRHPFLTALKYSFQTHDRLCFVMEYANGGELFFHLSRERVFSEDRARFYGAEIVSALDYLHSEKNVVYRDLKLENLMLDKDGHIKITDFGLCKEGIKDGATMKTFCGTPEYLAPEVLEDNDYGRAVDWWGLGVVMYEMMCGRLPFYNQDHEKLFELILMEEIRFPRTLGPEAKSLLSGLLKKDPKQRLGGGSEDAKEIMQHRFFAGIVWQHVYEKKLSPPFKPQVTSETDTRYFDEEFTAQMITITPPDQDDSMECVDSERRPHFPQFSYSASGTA
Chain of Serine/threonine-protein kinase B-raf (Homo sapiens) (P15056 whole entry): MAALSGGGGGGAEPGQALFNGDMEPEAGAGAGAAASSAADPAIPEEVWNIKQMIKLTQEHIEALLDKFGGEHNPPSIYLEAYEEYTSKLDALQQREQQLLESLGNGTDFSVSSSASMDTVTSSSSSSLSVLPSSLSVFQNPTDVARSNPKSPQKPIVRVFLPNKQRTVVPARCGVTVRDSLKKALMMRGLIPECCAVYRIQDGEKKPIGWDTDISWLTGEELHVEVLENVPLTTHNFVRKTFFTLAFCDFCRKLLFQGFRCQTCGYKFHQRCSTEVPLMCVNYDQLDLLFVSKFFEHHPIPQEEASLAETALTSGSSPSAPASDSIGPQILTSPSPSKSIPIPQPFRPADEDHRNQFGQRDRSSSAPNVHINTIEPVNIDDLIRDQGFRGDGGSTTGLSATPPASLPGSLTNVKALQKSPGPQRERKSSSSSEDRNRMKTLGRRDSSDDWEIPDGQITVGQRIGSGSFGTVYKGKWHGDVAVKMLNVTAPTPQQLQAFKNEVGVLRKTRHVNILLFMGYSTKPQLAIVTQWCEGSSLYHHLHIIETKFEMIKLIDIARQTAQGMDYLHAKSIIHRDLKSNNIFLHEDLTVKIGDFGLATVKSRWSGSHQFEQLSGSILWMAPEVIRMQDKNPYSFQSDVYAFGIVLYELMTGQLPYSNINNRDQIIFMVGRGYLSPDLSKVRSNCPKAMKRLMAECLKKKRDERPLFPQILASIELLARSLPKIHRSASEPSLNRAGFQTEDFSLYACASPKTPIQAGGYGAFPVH
Chain of Serine/threonine-protein kinase PAK 6 (Homo sapiens) (Q9NQU5 whole entry, looked up): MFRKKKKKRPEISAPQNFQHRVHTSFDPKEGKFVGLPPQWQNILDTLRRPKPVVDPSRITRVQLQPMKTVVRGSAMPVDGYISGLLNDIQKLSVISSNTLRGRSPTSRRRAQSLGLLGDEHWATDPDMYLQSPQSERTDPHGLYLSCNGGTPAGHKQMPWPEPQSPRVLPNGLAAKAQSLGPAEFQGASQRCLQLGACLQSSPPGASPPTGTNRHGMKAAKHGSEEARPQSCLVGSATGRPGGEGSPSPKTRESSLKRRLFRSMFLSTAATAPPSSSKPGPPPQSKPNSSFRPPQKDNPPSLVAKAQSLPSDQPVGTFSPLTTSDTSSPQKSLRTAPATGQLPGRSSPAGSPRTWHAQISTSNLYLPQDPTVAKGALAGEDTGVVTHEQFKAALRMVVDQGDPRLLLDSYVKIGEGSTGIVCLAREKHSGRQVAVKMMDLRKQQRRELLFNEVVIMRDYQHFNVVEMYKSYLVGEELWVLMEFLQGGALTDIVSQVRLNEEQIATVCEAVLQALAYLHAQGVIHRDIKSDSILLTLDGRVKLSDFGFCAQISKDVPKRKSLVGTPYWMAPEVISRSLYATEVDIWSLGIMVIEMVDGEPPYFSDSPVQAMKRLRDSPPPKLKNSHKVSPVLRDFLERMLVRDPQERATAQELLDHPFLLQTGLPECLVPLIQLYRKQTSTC
Chain of NT-3 growth factor receptor (Homo sapiens) (Q16288 32-839 limits assumed): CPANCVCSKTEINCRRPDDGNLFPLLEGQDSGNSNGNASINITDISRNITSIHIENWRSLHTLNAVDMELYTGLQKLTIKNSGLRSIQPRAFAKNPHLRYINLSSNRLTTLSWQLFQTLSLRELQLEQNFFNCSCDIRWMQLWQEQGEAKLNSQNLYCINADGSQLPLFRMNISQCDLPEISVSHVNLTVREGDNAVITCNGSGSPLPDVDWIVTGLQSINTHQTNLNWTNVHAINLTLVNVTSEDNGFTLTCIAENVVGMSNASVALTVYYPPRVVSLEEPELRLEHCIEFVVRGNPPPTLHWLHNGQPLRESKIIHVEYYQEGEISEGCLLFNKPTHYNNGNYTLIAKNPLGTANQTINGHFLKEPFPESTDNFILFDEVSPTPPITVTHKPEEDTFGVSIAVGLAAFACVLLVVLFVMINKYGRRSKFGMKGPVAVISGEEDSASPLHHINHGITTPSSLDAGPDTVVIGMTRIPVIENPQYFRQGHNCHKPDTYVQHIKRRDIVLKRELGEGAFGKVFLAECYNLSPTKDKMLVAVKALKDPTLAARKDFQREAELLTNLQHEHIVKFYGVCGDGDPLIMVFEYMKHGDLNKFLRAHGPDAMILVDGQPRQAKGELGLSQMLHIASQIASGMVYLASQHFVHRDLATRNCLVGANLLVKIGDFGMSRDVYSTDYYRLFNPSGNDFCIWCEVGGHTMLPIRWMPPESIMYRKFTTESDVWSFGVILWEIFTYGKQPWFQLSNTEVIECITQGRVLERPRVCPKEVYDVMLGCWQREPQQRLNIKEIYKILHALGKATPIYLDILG
Chain of Serine/threonine-protein kinase 33 (Homo sapiens) (Q9BYT3 whole entry, looked up): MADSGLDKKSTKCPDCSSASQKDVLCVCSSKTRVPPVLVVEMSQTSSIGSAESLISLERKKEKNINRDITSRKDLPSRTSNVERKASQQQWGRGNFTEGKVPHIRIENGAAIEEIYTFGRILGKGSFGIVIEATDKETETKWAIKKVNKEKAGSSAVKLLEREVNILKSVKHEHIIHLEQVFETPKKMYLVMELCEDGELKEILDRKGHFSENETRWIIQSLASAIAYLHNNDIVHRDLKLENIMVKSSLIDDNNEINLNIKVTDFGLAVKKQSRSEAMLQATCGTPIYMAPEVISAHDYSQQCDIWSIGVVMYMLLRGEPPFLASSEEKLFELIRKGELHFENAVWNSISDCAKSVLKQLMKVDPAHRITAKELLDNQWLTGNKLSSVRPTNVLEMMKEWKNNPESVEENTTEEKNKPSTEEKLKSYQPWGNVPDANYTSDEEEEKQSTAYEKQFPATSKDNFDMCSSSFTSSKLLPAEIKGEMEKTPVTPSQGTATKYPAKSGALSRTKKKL
Chain of Aurora kinase B (Q96GD4 whole entry): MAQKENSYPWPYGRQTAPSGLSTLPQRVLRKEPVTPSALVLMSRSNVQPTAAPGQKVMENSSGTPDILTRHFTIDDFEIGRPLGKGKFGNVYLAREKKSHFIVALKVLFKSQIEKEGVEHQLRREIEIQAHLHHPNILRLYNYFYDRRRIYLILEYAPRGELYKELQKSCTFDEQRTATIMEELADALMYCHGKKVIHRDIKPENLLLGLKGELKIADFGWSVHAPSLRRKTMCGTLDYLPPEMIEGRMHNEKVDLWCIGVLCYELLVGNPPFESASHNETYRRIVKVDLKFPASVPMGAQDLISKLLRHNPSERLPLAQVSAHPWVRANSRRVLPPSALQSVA

Turning to `COc1cc2c(Oc3ccc(-c4nc5ccccc5s4)cc3)ncnc2cc1OCCCN1CCCC1`, the residual activity in assay [1] came out at 94%; in assay [2] it was 124%; in assay [3], 96%; on Aurora kinase B, 24%; in [4], 51%; in assay [5] it was 81%. In addition, the residual activity came out at 95% in [6], 91% in assay [7], 86% in [8] and 96% in assay [9].

`COc1cc2c(Oc3ccc(-c4nc5ccccc5s4)cc3F)ncnc2cc1OCCCN1CCN(C)CC1`: the residual activity in assay [1] is 91%; in assay [2], 104%; in assay [3], 89%; at Aurora kinase B, 20%; in assay [4], 74%; in [5], 83%. Besides, the residual activity was determined as 57% in assay [6], 100% in [7], 93% in assay [8] and 85% in [9].

With `COc1cc2c(Oc3ccc(-c4nc5ccccc5s4)cc3)ncnc2cc1OCCCN1CCN(C)CC1`, the residual activity in assay [1] amounted to 101%; in [2] it was 104%; in assay [3], 85%; on Aurora kinase B, 18%; in assay [4], 70%; in [5] it was 113%. The residual activity in [6] was found to be 65%; in assay [7], 102%; in assay [8] it was 90%; in assay [9] it was 81%.
